This note sets out measurements from patent US20070105928A1, “6-Pentafluorophenyl-triazolopyrimidines, method for their production and their use for combating pathogenic fungi, in addition to agents containing said substances” (priority 2003, published 2007).

The test system of assay [1] is Pyrenophora teres. The experiment in a line: Activity against net blotch of barley caused by Pyrenophora teres, protective application. The class given is in vivo, Pyrenophora [syn. Drechslera] teres. To be noted: 250 ppm, barley seedlings cultivar Hanna, protective spray, assessed after 6 days; untreated plants 90% infected. The protocol: The active compounds were prepared as a stock solution with 0.25% by weight of active compound in acetone or DMSO. 1% by weight of the emulsifier Uniperol® EL (wetting agent having emulsifying and dispersing action based on ethoxylated alkylphenols) was added to this solution, and the mixture was diluted with water to the desired concentration. Leaves of pot-grown barley seedlings of the cultivar “Hanna” were sprayed to run off point with an aqueous suspension having the concentration of active compound stated below. 24 hours after the spray coating had dried on, the test plants were inoculated with an aqueous suspension of Pyrenophora [syn. Drechslera] teres, the causative agent of net blotch. The test plants were subsequently placed in a greenhouse at 20-24° C. and 95-100% relative atmospheric humidity. After 6 days, the extent of development of the disease was determined visually in percent infection of the total leaf area.

Assay [2] has as its system Botrytis cinerea. The experiment in a line: Activity against gray mold on bell pepper leaves caused by Botrytis cinerea, protective application. Type of assay: in vivo. To be noted: 63 ppm, bell pepper seedlings cultivar Neusiedler Ideal Elite, protective spray, assessed after 5 days; untreated plants 90% infected. The protocol: The active compounds were prepared as a stock solution with 0.25% by weight of active compound in acetone or DMSO. 1% by weight of the emulsifier Uniperol® EL (wetting agent having emulsifying and dispersing action based on ethoxylated alkylphenols) was added to this solution, and the mixture was diluted with water to the desired concentration. Bell pepper seedlings of the cultivar “Neusiedler Ideal Elite” were, after 2 to 3 leaves were well developed, sprayed to runoff point with an aqueous suspension having the concentration of active compound stated below. The next day, the treated plants were inoculated with a spore suspension of Botrytis cinerea which contained 1.7×10^6 spores/ml in a 2% strength aqueous biomalt solution. The test plants were then placed in a dark climatized chamber at 22-24° C. and high atmospheric humidity. After 5 days, the extent of the fungal infection on the leaves could be determined visually in %.

SMILES strings stand for the structures.

For the compound `Cc1nc2ncnn2c(N2CCC(C)CC2)c1-c1c(F)c(F)c(F)c(F)c1F` [Compound I-3, 5-methyl-6-(pentafluorophenyl)-7-(4-methylpiperidinyl)-1,2,4-triazolo[1,5a]pyrimidine], in assay [1], the “infection of the total leaf area” value was 5%. The “fungal infection on the leaves” value in assay [2] is given as “no infection”.
